Data set [1] deals with A549. As to the kind of experiment: Cytotoxicity against human A549 cells assessed as reduction in cell viability after 48 hrs by MTT assay. To be noted: A549, 48 h. Type of data set: functional, cell-based. For orientation: Formazan colour is commonly taken as a measure of viable cells.
The subject of data set [2] is MRC5. As to the kind of experiment: Cytotoxicity against human MRC5 cells assessed as reduction in cell viability after 48 hrs by MTT assay. The class given is cell-based. To be noted: MRC5, 48 h.
For data set [3], the target named is T1, Nuclear factor erythroid 2-related factor 2 (Homo sapiens) (UniProt Q16236).
T1 sequence (whole entry): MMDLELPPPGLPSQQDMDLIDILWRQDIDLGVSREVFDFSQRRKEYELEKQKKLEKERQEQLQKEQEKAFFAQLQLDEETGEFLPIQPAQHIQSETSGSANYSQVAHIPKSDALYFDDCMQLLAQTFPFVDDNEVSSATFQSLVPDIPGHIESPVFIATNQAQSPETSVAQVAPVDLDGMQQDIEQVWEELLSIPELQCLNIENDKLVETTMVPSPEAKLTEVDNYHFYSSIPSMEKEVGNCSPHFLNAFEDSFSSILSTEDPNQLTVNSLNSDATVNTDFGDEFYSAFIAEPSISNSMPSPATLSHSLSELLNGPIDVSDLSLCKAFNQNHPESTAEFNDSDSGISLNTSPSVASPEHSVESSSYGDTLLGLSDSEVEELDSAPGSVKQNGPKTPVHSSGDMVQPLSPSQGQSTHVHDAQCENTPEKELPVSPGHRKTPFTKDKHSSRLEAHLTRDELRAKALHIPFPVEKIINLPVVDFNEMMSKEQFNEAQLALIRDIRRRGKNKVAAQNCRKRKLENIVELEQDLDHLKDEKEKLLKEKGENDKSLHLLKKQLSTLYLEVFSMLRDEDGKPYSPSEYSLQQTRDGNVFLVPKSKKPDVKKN
As to the kind of experiment: Activation of NRF2 in human HaCaT cells expressing rat NQO1 assessed as induction of NQO1 expression at 50 nM to 5 uM incubated for 24 hrs by ARE-driven luciferase reporter gene assay. The class given is cell-based. For orientation: Reporter assays use an easily measured gene product as a stand-in for the process of interest.

Data set [4] deals with HaCaT. As to the kind of experiment: Toxicity in human HaCaT cells expressing rat NQO1 assessed as reduction in cell viability at 50 uM incubated for 24 hrs by MTT assay. The class given is cell-based.
For data set [5], the system named is HaCaT. As to the kind of experiment: Toxicity in human HaCaT cells expressing rat NQO1 assessed as reduction in cell viability at 500 uM incubated for 24 hrs by MTT assay. Type of data set: cell-based.
Data set [6] deals with A549. The data set can be described thus: Cytotoxicity against human A549 cells assessed as reduction in cell viability at 10 uM after 48 hrs by inverted microscopy. Type of data set: functional.
Data set [7] concerns MRC5. As to the kind of experiment: Cytotoxicity against human MRC5 cells assessed as reduction in cell viability at 10 uM after 48 hrs by inverted microscopy. Type of data set: cell-based. As to conditions: mrc5, 48 h.
The nature of data set [8]: Cytotoxicity against human MRC5 cells assessed as cell viability at 10 uM after 48 hrs by inverted microscopy. Type of data set: cell-based. As to conditions: read-out: Activity.

Each structure is given as a SMILES string. Active and inactive are the calls of the source. The calls are words filed in the database; no cut-off is given here.

In the case of `CC(O)C(=O)O` (configuration not stated) [LACTIC ACID], the results for the concentration for half-maximal inhibition (IC50) with A549 [1] and with MRC5 [2] were 26.6 µM and 23.9 µM, respectively.
On to `CCCC[S@@+]([O-])CCCCN=C=S`, for which the outcome in data set [3] was Active. Further, the Activity entry in the data set with HaCaT [4] and in the data set on HaCaT [5] was “Toxic” in each case. Also, the results for the IC50 with A549 [1] and in the data set on MRC5 [2] were 9.77 µM and 17.4 µM, respectively. For the same compound, in the data set on A549 [6], the “growth inhibition (GI)” value is “Active”. The “growth inhibition (GI)” value in the data set on MRC5 [7] is on record as “Non-toxic”. Also, in data set [8], the viability at 48 h, 10 µM was 90%.
With `CC[S@@+]([O-])CCCCN=C=S` (racemic), the result in data set [3] was Active. Besides, the Activity entry in the data set with HaCaT [4] and with HaCaT [5] was “Toxic” throughout. Also, the IC50 in the data set with A549 [1] was determined as 19.8 µM; in the data set with MRC5 [2], 40.8 µM.
Consider `C[S@+]([O-])CCCCCCN=C=S`, for which the result in data set [3] was Active.
Regarding `C[S@@](=O)CCCCN=C=S` [SULFORAPHANE], the result in data set [3] was Active. The Activity entry in the data set on HaCaT [4] and in the data set with HaCaT [5] was “Toxic” throughout. Besides, the IC50 was 19.6 µM with A549 [1] and 46.6 µM with MRC5 [2].
For the compound `C[S@@+]([O-])CCCCCCN=C=S`, the outcome in data set [3] was Active.
With `C[S@+]([O-])CCCCCN=C=S`, the result in data set [3] was Active. Further, the Activity result in the data set with HaCaT [4] and in the data set with HaCaT [5] was “Toxic” throughout. The results for the IC50 with A549 [1] and with MRC5 [2] were 12 µM and 20.2 µM, respectively.
As for `C[S@@+]([O-])CCCCCN=C=S`, in data set [3], the result was Active. The Activity entry in the data set on HaCaT [4] and with HaCaT [5] was “Toxic” throughout. The concentration for half-maximal inhibition (IC50) with A549 [1] worked out at 9.62 µM; with MRC5 [2] it was 18.5 µM.

The IC50 is the concentration needed to halve the response being measured.

These data come from ChEMBL document CHEMBL3352446, “Sulforaphane homologues: Enantiodivergent synthesis of both enantiomers, activation of the Nrf2 transcription factor and selective cytotoxic activity” (Eur J Med Chem, 2014).
